Source: ChEMBL document CHEMBL3885861, “Open TG-GATES”

Species: Rattus norvegicus
Experiment: Open TG-GATES - Regimen: Single
Type: toxicity, organism-based, Sprague-Dawley
Parameters: regimen Single, gender Male, age 6 weeks
Details: in vivo, po, 30 mg/kg, route gavage, dose level Middle; for APTT / Bas / Eos / Fbg / Hb / Ht / Lym / MCH / MCHC / MCV / Mono / Neu / PT / Plat / RBC / Ret / WBC: tissue Blood; for KIDNEY_L / KIDNEY_R / KIDNEY_TOTAL: tissue Kidney; for LIVER: tissue Liver; for A/G / ALP / ALT / AST / BUN / CRE / Ca / Cl / DBIL / GLC / IP / K / LDH / Na / PL / RALB / TBIL / TC / TG / TP / gamma-GTP: tissue Plasma

## CC1=C(/C=C/C(C)=C/C=C/C(C)=C/CO)C(C)(C)CCC1 [RETINOL]
3 h
  TERMINAL_BW: 204 g
  APTT: 21.5 s
  Bas: 0%
  Eos: 1.2%
  Fbg: 295.2 mg/dL
  Hb: 13.2 g/dL
  Ht: 38.6%
  Lym: 77.6%
  MCH: 21.6 pg
  MCHC: 34.1%
  MCV: 63.4 fL
  Mono: 3%
  Neu: 17.6%
  PT: 15.9 s
  Plat: 124.8 x10_4/uL
  RBC: 609.8 x10_4/ul
  Ret: 8.3%
  WBC: 84.2 x10_2/uL
  KIDNEY_L: 0.9 g
  KIDNEY_R: 0.9 g
  KIDNEY_TOTAL: 1.8 g
  LIVER: 9.3 g
  A/G: 1.3
  ALP: 1939.2 IU/L
  ALT: 48.2 IU/L
  AST: 80 IU/L
  BUN: 13.4 mg/dL
  CRE: 0.1 mg/dL
  Ca: 11.3 mg/dL
  Cl: 106.2 meq/L
  DBIL: 0 mg/dL
  GLC: 176.4 mg/dL
  IP: 9 mg/dL
  K: 4.2 meq/L
  LDH: 231 IU/L
  Na: 141.2 meq/L
  PL: 165.4 mg/dL
  RALB: 3.1 g/dL
  TBIL: 0.004 mg/dL
  TC: 83.2 mg/dL
  TG: 153.8 mg/dL
  TP: 5.7 g/dL
  gamma-GTP: 3.6 IU/L
6 h
  TERMINAL_BW: 195.5 g
  APTT: 21.5 s
  Bas: 0%
  Eos: 0.8%
  Fbg: 302.4 mg/dL
  Hb: 13.4 g/dL
  Ht: 38.7%
  Lym: 77.8%
  MCH: 21.1 pg
  MCHC: 34.5%
  MCV: 61.2 fL
  Mono: 2.8%
  Neu: 17.8%
  PT: 15.5 s
  Plat: 119.2 x10_4/uL
  RBC: 633.8 x10_4/ul
  Ret: 7.3%
  WBC: 101.4 x10_2/uL
  KIDNEY_L: 0.9 g
  KIDNEY_R: 0.9 g
  KIDNEY_TOTAL: 1.8 g
  LIVER: 8.2 g
  A/G: 1.2
  ALP: 1586.8 IU/L
  ALT: 36.2 IU/L
  AST: 72.2 IU/L
  BUN: 8.8 mg/dL
  CRE: 0.1 mg/dL
  Ca: 10.8 mg/dL
  Cl: 107.6 meq/L
  DBIL: 0.004 mg/dL
  GLC: 176.8 mg/dL
  IP: 9.8 mg/dL
  K: 4.4 meq/L
  LDH: 224.8 IU/L
  Na: 142 meq/L
  PL: 146.2 mg/dL
  RALB: 3.1 g/dL
  TBIL: 0.01 mg/dL
  TC: 74.6 mg/dL
  TG: 119.6 mg/dL
  TP: 5.6 g/dL
  gamma-GTP: 1 IU/L
9 h
  TERMINAL_BW: 195.6 g
  APTT: 21.7 s
  Bas: 0%
  Eos: 1%
  Fbg: 317 mg/dL
  Hb: 13.3 g/dL
  Ht: 38.5%
  Lym: 75.2%
  MCH: 21.3 pg
  MCHC: 34.5%
  MCV: 61.8 fL
  Mono: 2.8%
  Neu: 21%
  PT: 15.5 s
  Plat: 115.9 x10_4/uL
  RBC: 623.4 x10_4/ul
  Ret: 7.7%
  WBC: 94.3 x10_2/uL
  KIDNEY_L: 0.9 g
  KIDNEY_R: 0.9 g
  KIDNEY_TOTAL: 1.8 g
  LIVER: 8.3 g
  A/G: 1.3
  ALP: 1640.4 IU/L
  ALT: 33 IU/L
  AST: 67.4 IU/L
  BUN: 10 mg/dL
  CRE: 0.2 mg/dL
  Ca: 11 mg/dL
  Cl: 106 meq/L
  DBIL: 0.008 mg/dL
  GLC: 181 mg/dL
  IP: 11.1 mg/dL
  K: 4.2 meq/L
  LDH: 253.4 IU/L
  Na: 141.2 meq/L
  PL: 136 mg/dL
  RALB: 3.1 g/dL
  TBIL: 0.014 mg/dL
  TC: 72 mg/dL
  TG: 82.6 mg/dL
  TP: 5.5 g/dL
  gamma-GTP: 1 IU/L
24 h
  TERMINAL_BW: 208 g
  APTT: 21.8 s
  Bas: 0%
  Eos: 0.6%
  Fbg: 303.2 mg/dL
  Hb: 13.1 g/dL
  Ht: 38.6%
  Lym: 79.4%
  MCH: 21.5 pg
  MCHC: 34.1%
  MCV: 63.1 fL
  Mono: 3%
  Neu: 16.2%
  PT: 15.9 s
  Plat: 124 x10_4/uL
  RBC: 612.6 x10_4/ul
  Ret: 7.8%
  WBC: 76.3 x10_2/uL
  KIDNEY_L: 0.9 g
  KIDNEY_R: 0.9 g
  KIDNEY_TOTAL: 1.9 g
  LIVER: 10.1 g
  A/G: 1.4
  ALP: 1811.2 IU/L
  ALT: 42.6 IU/L
  AST: 75.8 IU/L
  BUN: 16.6 mg/dL
  CRE: 0.2 mg/dL
  Ca: 10.8 mg/dL
  Cl: 107.2 meq/L
  DBIL: 0.002 mg/dL
  GLC: 193 mg/dL
  IP: 7.2 mg/dL
  K: 4.2 meq/L
  LDH: 242.4 IU/L
  Na: 141.6 meq/L
  PL: 148.2 mg/dL
  RALB: 3.2 g/dL
  TBIL: 0.006 mg/dL
  TC: 74.2 mg/dL
  TG: 114 mg/dL
  TP: 5.6 g/dL
  gamma-GTP: 1.2 IU/L
